This note sets out measurements from US9714232B2, “Substituted piperazine compounds and methods of use thereof” (Sunshine Lake Pharma Co., Ltd., priority 2013, dated 2017).

The target of test [1] is serotonin transporter in rat synaptosome (Rattus norvegicus (Rat), UniProt P31652). As to the kind of experiment: Inhibitory effect on [3H]5-HT uptake in rat synaptosome. It counts as biochemical. The settings on record: rat brain synaptosomes, 0.1 μCi [3H]5-HT, 37° C., 15 minutes. The protocol: The synaptosomes (150 μg) prepared from a rat brain were incubated at 37° C. for 15 minutes with 0.1 μCi [^3H]5-HT in the absence or presence of the test compound or the reference compound in a buffer solution containing 106.2 mM NaCl, 4.5 mM KCl, 2.25 mM MgSO4, 1.08 mM NaH2PO4, 22.5 mM NaHCO3, 9.9 mM glucose, 9 μM EGTA and 45 μM ascorbic acid (pH 7.4).
The basal control activity was determined by incubating the same mixture at 4° C. for 15 minutes in the presence of 10 μM imipramine to block the uptake of 5-HT, which was taken as the standard reference compound and tested in each experiment at several concentrations to obtain an inhibition curve.
Following the incubation, the samples were filtered rapidly under vacuum through glass fiber filters (GF/B, Packard) and rinsed twice with an ice-cold incubation buffer using a 96-sample cell harvester (Unifilter, Packard) to eliminate free [^3H]5-HT. The filters were dried and the retained radioactivity was measured in a scintillation counter (Topcount, Packard) using a scintillation cocktail (Microscint 0, Packard). The experimental results were expressed as a percent inhibition of the control uptake of [^3H]5-HT.
Inhibition of serotonin transporter in rat synaptosome was measured by the concentrations of [^3H]5-HT.

The target in the next test is human 5-HT1A receptor (Homo sapiens (Human), UniProt P08908). The experiment in a line: Affinity for human 5-HT1A receptor ([3H]8-OH-DPAT binding, HEK-293 cell homogenates). As to conditions: 0.3 nM [3H]8-OH-DPAT, human HEK-293 cell homogenates, 22° C., 60 minutes; Ki from IC50 by ChengPrusoff equation. The protocol:
Human HEK-293 cell homogenates (36 μg protein) were incubated at 22° C. for 60 minutes with 0.3 nM [^3H]8-0H-DPAT (Perkin-Elmer) in the absence or presence of the test compound in a buffer solution containing 50 mM Tris-HCl (pH 7.4), 10 mM MgSO4, 0.5 mM EDTA and 2 μg/ml aprotinine.
The non-specific binding value was determined by incubating the same mixture in the presence of 10 μM 8-OH-DPAT, which was used as the standard reference compound and tested in each experiment at several concentrations to obtain a competition curve.
Following the incubation, the samples were filtered rapidly under vacuum through glass fiber filter (GF/B, Packard) presoaked with 0.3% PEI and rinsed several times with ice-cold 50 mM Tris-HCl using a 96-sample cell harvester (Unifilter, Packard). The filters were dried and the retained radioactivity was measured in a scintillation counter (Topcount, Packard) using a scintillation cocktail (Microscint 0, Packard). The experimental results were expressed as a percent inhibition of the control radioligand specific binding.
Binding assay of [^3H] 8-OH-DPAT (0.3 nM) with 5-HT1A receptor in human HEK-293 cell was tested by scintillation proximity assay of membrane.

serotonin transporter in rat synaptosome, sequence (P31652 whole entry): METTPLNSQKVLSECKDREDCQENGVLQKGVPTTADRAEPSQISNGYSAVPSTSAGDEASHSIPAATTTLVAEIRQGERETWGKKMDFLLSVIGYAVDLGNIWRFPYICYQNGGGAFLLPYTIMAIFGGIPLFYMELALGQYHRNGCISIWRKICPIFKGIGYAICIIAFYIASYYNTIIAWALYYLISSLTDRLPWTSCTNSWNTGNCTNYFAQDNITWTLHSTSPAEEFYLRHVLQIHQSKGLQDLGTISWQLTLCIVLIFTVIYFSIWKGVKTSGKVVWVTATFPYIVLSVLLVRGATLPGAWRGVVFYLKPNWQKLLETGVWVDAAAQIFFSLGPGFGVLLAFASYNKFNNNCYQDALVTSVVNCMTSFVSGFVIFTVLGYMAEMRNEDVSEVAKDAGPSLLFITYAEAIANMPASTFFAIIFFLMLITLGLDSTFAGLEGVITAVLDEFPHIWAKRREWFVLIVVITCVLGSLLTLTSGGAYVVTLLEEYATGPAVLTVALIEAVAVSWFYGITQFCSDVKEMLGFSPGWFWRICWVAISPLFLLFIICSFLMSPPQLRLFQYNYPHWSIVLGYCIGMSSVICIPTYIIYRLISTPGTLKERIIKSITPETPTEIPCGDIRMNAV
human 5-HT1A receptor, sequence (P08908 whole entry): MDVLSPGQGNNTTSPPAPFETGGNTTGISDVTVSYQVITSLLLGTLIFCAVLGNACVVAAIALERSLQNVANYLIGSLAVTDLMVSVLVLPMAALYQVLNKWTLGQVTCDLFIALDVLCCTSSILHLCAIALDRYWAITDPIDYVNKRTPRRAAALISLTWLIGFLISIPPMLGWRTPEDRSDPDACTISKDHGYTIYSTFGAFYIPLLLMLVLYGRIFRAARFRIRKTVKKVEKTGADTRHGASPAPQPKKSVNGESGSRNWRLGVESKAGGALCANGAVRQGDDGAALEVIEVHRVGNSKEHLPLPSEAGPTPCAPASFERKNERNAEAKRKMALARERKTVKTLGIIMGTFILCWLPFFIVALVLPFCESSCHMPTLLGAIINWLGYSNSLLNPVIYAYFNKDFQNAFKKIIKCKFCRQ

What is called IC50 is the concentration that gives 50% inhibition. As usually defined, the Ki is the dissociation constant of the complex between target and ligand, obtained from inhibition or displacement. High values mean weaker binding, low ones tighter binding. For `O=C1CCCCN1c1ccc(N2CCN(CCCCc3c[nH]c4ccc(F)cc34)CC2)cc1` [Example 1, 1-(4-(4-(4-(5-fluoro-1H-indol-3-yl)butyl)piperazin-1-yl)phenyl)piperidin-2-one], the midpoint of inhibition in test [1], the IC50, lay at 4.3 nM. In addition, the affinity on human 5-HT1A receptor, expressed as Ki, was 2.5 nM. In turn, `N#Cc1ccc2[nH]cc(CCCCN3CCN(c4ccc(N5CCCCC5=O)cc4)CC3)c2c1` [Example 2, 3-(4-(4-(4-(2-oxopiperidin-1-yl)phenyl)piperazin-1-yl)butyl)-1H-indole-5-carbonitrile] came in with an IC50 in test [1] of 1.8 nM. At human 5-HT1A receptor, this molecule displayed a Ki of 1.9 nM.

Consider `O=C1CCCCN1c1ccc(N2CCN(CCCc3c[nH]c4ccc(F)cc34)CC2)cc1` [Example 3, 1-(4-(4-(3-(5-fluoro-1H-indol-3-yl)propyl)piperazin-1-yl)phenyl)piperidin-2-one], for which half-maximal inhibition in test [1] (IC50) required 4.2 nM. Further, the Ki at human 5-HT1A receptor worked out at 3.2 nM. The corresponding values for `N#Cc1ccc2[nH]cc(CCCN3CCN(c4ccc(N5CCCCC5=O)cc4)CC3)c2c1` [Example 4, 3-(3-(4-(4-(2-oxopiperidin-1-yl)phenyl)piperazin-1-yl)propyl)-1H-indole-5-carbonitrile] are 8.5 nM and 1.2 nM. In test [1], `O=C1COCCN1c1ccc(N2CCN(CCCCc3c[nH]c4ccc(F)cc34)CC2)cc1` [Example 5, 4-(4-(4-(4-(5-fluoro-1H-indol-3-yl)butyl)piperazin-1-yl)phenyl)morpholin-3-one] yielded an IC50 of 6.3 nM. On human 5-HT1A receptor, this molecule came in with a Ki of 3.1 nM.

In test [1], `N#Cc1ccc2[nH]cc(CCCCN3CCN(c4ccc(N5CCOCC5=O)cc4)CC3)c2c1` [Example 6, 3-(4-(4-(4-(3-oxomorpholino)phenyl)piperazin-1-yl)butyl)-1H-indole-5-carbonitrile] showed a half-inhibitory concentration (IC50) of 2.2 nM. The Ki at human 5-HT1A receptor worked out at 2.1 nM. In test [1], `O=C1COCCN1c1ccc(N2CCN(CCCc3c[nH]c4ccc(F)cc34)CC2)cc1` [Example 7, 4-(4-(4-(3-(5-fluoro-1H-indol-3-yl)propyl)piperazin-1-yl)phenyl)morpholin-3-one] registered an IC50 of 7.3 nM. Moreover, on human 5-HT1A receptor, affinity was put at a Ki of 6.4 nM. In turn, `N#Cc1ccc2[nH]cc(CCCN3CCN(c4ccc(N5CCOCC5=O)cc4)CC3)c2c1` [Example 8, 3-(3-(4-(4-(3-oxomorpholino)phenyl)piperazin-1-yl)propyl)-1H-indole-5-carbonitrile] yielded an IC50 in test [1] of 10 nM. For the same molecule, the inhibition constant Ki at human 5-HT1A receptor came out at 3.2 nM. The molecule `N#Cc1ccc2[nH]cc(CCCCN3CCN(c4ccc(-n5ccccc5=O)cc4)CC3)c2c1` [Example 9, 3-(4-(4-(4-(2-oxopyridin-1(2H)-yl)phenyl)piperazin-1-yl)butyl)-1H-indole-5-carbonitrile] showed an IC50 in test [1] of 8 nM. Also, the Ki at human 5-HT1A receptor was determined as 0.23 nM. As to `O=c1ccccn1-c1ccc(N2CCN(CCCCc3c[nH]c4ccc(F)cc34)CC2)cc1` [Example 10, 1-(4-(4-(4-(5-fluoro-1H-indol-3-yl)butyl)piperazin-1-yl)phenyl)pyridin-2(1H)-one], the concentration for half-maximal inhibition (IC50) in test [1] is 1.6 nM. On human 5-HT1A receptor, this molecule returned an inhibition constant Ki of 0.19 nM. In the case of `N#Cc1ccc2[nH]cc(CCCN3CCN(c4ccc(-n5ccccc5=O)cc4)CC3)c2c1` [Example 11, 3-(3-(4-(4-(2-oxopyridin-1(2H)-yl)phenyl)piperazin-1-yl)propyl)-1H-indole-5-carbonitrile], inhibition in test [1] was half-maximal at 0.98 nM (IC50). The same molecule gave a Ki on human 5-HT1A receptor of 1.2 nM. Taken in the same sequence, the figures for `O=c1ccccn1-c1ccc(N2CCN(CCCc3c[nH]c4ccc(F)cc34)CC2)cc1` [Example 12, 1-(4-(4-(3-(5-fluoro-1H-indol-3-yl)propyl)piperazin-1-yl)phenyl)pyridin-2(1H)-one] were 7.1 nM and 0.87 nM. `N#Cc1ccc2[nH]cc(CCN3CCN(c4ccc(-n5ccccc5=O)cc4)CC3)c2c1` [Example 13, 3-(2-(4-(4-(2-oxopyridin-1(2H)-yl)phenyl)piperazin-1-yl)ethyl)-1H-indole-5-carbonitrile] displayed a 50% inhibitory concentration (IC50) in test [1] of 2.6 nM. The inhibition constant (Ki) at human 5-HT1A receptor was 54 nM.

Consider `N#Cc1ccc2[nH]cc(CCCCCN3CCN(c4ccc(-n5ccccc5=O)cc4)CC3)c2c1` [Example 14, 3-(5-(4-(4-(2-oxopyridin-1(2H)-yl)phenyl)piperazin-1-yl)pentyl)-1H-indole-5-carbonitrile], for which the IC50 in test [1] stood at 1.4 nM. The molecule further returned a Ki on human 5-HT1A receptor of 4.1 nM. As for `N#Cc1ccc2[nH]cc(C(O)CCCN3CCN(c4ccc(-n5ccccc5=O)cc4)CC3)c2c1` (stereo not drawn) [Example 15, 3-(1-hydroxy-4-(4-(4-(2-oxopyridin-1(2H)-yl)phenyl)piperazin-1-yl)butyl)-1H-indole-5-carbonitrile], in test [1], the IC50 came out at 330 nM.

For `N#Cc1ccc2[nH]cc(C(O)CCN3CCN(c4ccc(-n5ccccc5=O)cc4)CC3)c2c1` (stereo not drawn) [Example 16, 3-(1-hydroxy-3-(4-(4-(2-oxopyridin-1(2H)-yl)phenyl)piperazin-1-yl)propyl)-1H-indole-5-carbonitrile], in test [1], the IC50 came to 170 nM. Compared with the last molecule, the IC50 is about 1.9-fold lower.

In test [1], `Cc1ccn(-c2ccc(N3CCN(CCCCc4c[nH]c5ccc(C#N)cc45)CC3)cc2)c(=O)c1` [Example 17, 3-(4-(4-(4-(4-methyl-2-oxopyridin-1(2H)-yl)phenyl)piperazin-1-yl)butyl)-1H-indole-5-carbonitrile] displayed an IC50 of 1.7 nM. The molecule further gave an inhibition constant Ki on human 5-HT1A receptor of 0.48 nM. As for `Cc1ccn(-c2ccc(N3CCN(CCCc4c[nH]c5ccc(C#N)cc45)CC3)cc2)c(=O)c1` [Example 18, 3-(3-(4-(4-(4-methyl-2-oxopyridin-1(2H)-yl)phenyl)piperazin-1-yl)propyl)-1H-indole-5-carbonitrile], in test [1], the midpoint of inhibition, the IC50, lay at 7.5 nM. This molecule also registered an inhibition constant Ki at human 5-HT1A receptor of 0.89 nM.

Take `Cc1ccn(-c2ccc(N3CCN(CCc4c[nH]c5ccc(C#N)cc45)CC3)cc2)c(=O)c1` [Example 19, 3-(2-(4-(4-(4-methyl-2-oxopyridin-1(2H)-yl)phenyl)piperazin-1-yl)ethyl)-1H-indole-5-carbonitrile]: the IC50 in test [1] is 2 nM. The molecule further yielded a Ki on human 5-HT1A receptor of 33 nM. `Cc1ccn(-c2ccc(N3CCN(CCCCCc4c[nH]c5ccc(C#N)cc45)CC3)cc2)c(=O)c1` [Example 20, 3-(5-(4-(4-(4-methyl-2-oxopyridin-1(2H)-yl)phenyl)piperazin-1-yl)pentyl)-1H-indole-5-carbonitrile] came in with an IC50 in test [1] of 3.6 nM. At human 5-HT1A receptor, the Ki came out at 4.7 nM. In turn, `COc1ccn(-c2ccc(N3CCN(CCCCc4c[nH]c5ccc(C#N)cc45)CC3)cc2)c(=O)c1` [Example 21, 3-(4-(4-(4-(4-methoxy-2-oxopyridin-1(2H)-yl)phenyl)piperazin-1-yl)butyl)-1H-indole-5-carbonitrile] showed an IC50 in test [1] of 7.4 nM. On human 5-HT1A receptor, this molecule returned an inhibition constant (Ki) of 1.2 nM.

Molecule `COc1ccn(-c2ccc(N3CCN(CCCc4c[nH]c5ccc(C#N)cc45)CC3)cc2)c(=O)c1` [Example 22, 3-(3-(4-(4-(4-methoxy-2-oxopyridin-1(2H)-yl)phenyl)piperazin-1-yl)propyl)-1H-indole-5-carbonitrile] registered a half-maximal inhibitory concentration (IC50) in test [1] of 1.8 nM. This molecule registered a Ki on human 5-HT1A receptor of 0.61 nM.

For the molecule `COc1ccn(-c2ccc(N3CCN(CCc4c[nH]c5ccc(C#N)cc45)CC3)cc2)c(=O)c1` [Example 23, 3-(2-(4-(4-(4-methoxy-2-oxopyridin-1(2H)-yl)phenyl)piperazin-1-yl)ethyl)-1H-indole-5-carbonitrile], it took 12 nM to reach half-maximal inhibition in test [1] (IC50). With `COc1ccn(-c2ccc(N3CCN(CCCCCc4c[nH]c5ccc(C#N)cc45)CC3)cc2)c(=O)c1` [Example 24, 3-(5-(4-(4-(4-methoxy-2-oxopyridin-1(2H)-yl)phenyl)piperazin-1-yl)pentyl)-1H-indole-5-carbonitrile], the IC50 in test [1] is 5.5 nM. This molecule also had a Ki at human 5-HT1A receptor of 12 nM. `N#Cc1ccc2[nH]cc(CCCCN3CCN(c4ccc(-n5cc(F)cc(F)c5=O)cc4)CC3)c2c1` [Example 25, 3-(4-(4-(4-(3,5-difluoro-2-oxopyridin-1(2H)-yl)phenyl)piperazin-1-yl)butyl)-1H-indole-5-carbonitrile] displayed an IC50 in test [1] of 1.4 nM. This molecule also showed an inhibition constant (Ki) at human 5-HT1A receptor of 0.18 nM. Molecule `N#Cc1ccc2[nH]cc(CCCCN3CCN(c4ccc(-n5ccc6ccccc6c5=O)cc4)CC3)c2c1` [Example 29, 3-(4-(4-(4-(1-oxoisoquinolin-2(1H)-yl)phenyl)piperazin-1-yl)butyl)-1H-indole-5-carbonitrile] showed an IC50 in test [1] of 10 nM. In other words, the double-digit nanomolar range.
